Measured values published in patent US20100048530A1, “New 2-Azetidinone Derivatives As Cholesterol Absorption Inhibitors For The Treatment Of Hyperlipidaemic Conditions” (ASTRAZENECA AB, priority 2005, published 2010).

Tested on: C57BL/6 female mice
Assay: In vivo testing of cholesterol absorption inhibitors (A)
Settings: 0.2 μmol/kg, gavage, procedure A
Method: In Vivo Testing of Cholesterol Absorption Inhibitors (A)
C57BL/6 female mice were maintained on regular chow diet and housed in individual cages to collect faeces. Mice were fasted for 3 hours and then gavaged with vehicle or compound. Half an hour later the mice were gavaged with radiolabelled cholesterol. Six hours after the ^14C-cholesterol gavage blood samples were taken via the tail and plasma prepared to determine how much cholesterol were absorbed. 24 hours after the gavage of ^14C-cholesterol the mice were bled and plasma were prepared for analysis. Faeces were collected for 24 hours to assess absorption efficiency.

O=C(O)CNC(=O)[C@@H](CC1CCCCC1)NC(=O)CNC(=O)COc1ccc([C@@H]2[C@@H](SCC(O)c3ccc4c(c3)OCCO4)C(=O)N2c2ccc(F)cc2)cc1 (stereo partly drawn) [Example 1, N-({4-[(2R,3R)-3-{[2-(2,3-dihydro-1,4-benzodioxin-6-yl)-2-hydroxyethyl]thio}-1-(4-fluorophenyl)-4-oxoazetidin-2-yl]phenoxy}acetyl)glycyl-3-cyclohexyl-D-alanylglycine]
inhibition of 14C-cholesterol absorption: 43%
